Results reported in patent publication US11767341B2, “Lincosamide antibiotics and uses thereof” (President and Fellows of Harvard College, priority 2017, dated 2023).
≈ marks a conversion by molar mass, not a printed value. Where two headings read alike, the source gives them in different places.

Columns and labels:
Experiment in all cases: MIC determination
Type in all cases: cell-based
K. pneumoniae ATCC 10031 = conditions: Klebsiella pneumoniae, ATCC10031
[1] = test system: E. coli MP-74 LptD mutant
[2] = test system: S. aureus MP-549 msr(a) USA 300; conditions: Staphylococcus aureus, USA300, S. aureus MP-549 msr(a) USA 300
E. coli ATCC 25922 = conditions: Escherichia coli
S. aureus ATCC 29213 = test system: S. aureus ATCC 29213
H. influenzae ATCC 49247 = test system: H. influenzae ATCC 49247
E. faecalis ATCC 29212 = conditions: Enterococcus faecalis
S. pneumoniae ATCC 49619 = conditions: Streptococcus pneumoniae, ATCC49619
S. pyogenes ATCC 19615 = conditions: S. pyogenes ATCC 19615
E. coli MP-9 ΔTolC = test system: E. coli MP-9 ΔTolC
[3] = test system: E. faecalis MMX 847 Macrolide-Resistant; conditions: Enterococcus faecalis, read-out: MIC
S. aureus MMX 3035 cErmA = conditions: Staphylococcus aureus, MMX3035CERMA; S. aureus MMX 3035 cErmA; read-out: MIC
[4] = test system: S. pneumoniae MMX 3031 cMefA; conditions: Streptococcus pneumoniae, MMX3031CMEFA
[5] = test system: S. pneumoniae MMX 3028 cErmB; conditions: Streptococcus pneumoniae, MMX3028CERMB
[6] = test system: S. pyogenes MMX 946 Macrolide-Resistant; conditions: Streptococcus pyogenes
S. aureus BAA 977 iErmA = conditions: Staphylococcus aureus, BAA977
[7] = K. pneumoniae ATCC 10031, read-out: MIC
[8] = ATCC25922, E. coli ATCC 25922, read-out: MIC
[9] = Staphylococcus aureus, ATCC29213, S. aureus ATCC 29213, read-out: MIC
[10] = Haemophilus influenzae, ATCC49247
[11] = S. pneumoniae ATCC 49619, read-out: MIC
[12] = Streptococcus pyogenes, ATCC19615, read-out: MIC
[13] = Staphylococcus aureus, ATCC29213
[14] = S. pneumoniae MMX 3028 cErmB, read-out: MIC

| Compound | MIC ([1]; Escherichia coli) [µg/mL] | MIC [2] [µg/mL] | MIC (E. coli ATCC 25922; [8]) [µg/mL] | MIC (S. aureus ATCC 29213; [9]) [µg/mL] | MIC (H. influenzae ATCC 49247; [10]) [µg/mL] | MIC (E. faecalis ATCC 29212; ATCC29212, read-out: MIC) [µg/mL] | MIC (S. pneumoniae ATCC 49619; [11]) [µg/mL] | MIC (S. pyogenes ATCC 19615; [12]) [µg/mL] | MIC (E. coli MP-9 ΔTolC; Escherichia coli) [µg/mL] | MIC (K. pneumoniae ATCC 10031) [µg/mL] | MIC (E. coli ATCC 25922; ATCC25922) [µg/mL] | MIC (E. faecalis ATCC 29212; ATCC29212) [µg/mL] | also measured |
| --- | --- | --- | --- | --- | --- | --- | --- | --- | --- | --- | --- | --- | --- |
| COc1ccc(C2=CCO[C@@H]3[C@H](CN[C@@H]3C(=O)N[C@H]([C@H](C)Cl)[C@H]3OC(SC)[C@H](O)[C@H](O)C3O)C2)cc1 (stereo partly drawn) [FSA-511020] | 64 (≈ 118 µM) | 1 (≈ 1.84 µM) | > 64 | 0.5 (≈ 0.921 µM) | 64 (≈ 118 µM) | 4 (≈ 7.37 µM) | ≤ 0.06 | ≤ 0.06 | 64 (≈ 118 µM) |  |  |  | MIC (K. pneumoniae ATCC 10031; [7]): > 64 µg/mL |
| COc1ccc(C2CCO[C@@H]3[C@H](CN[C@@H]3C(=O)N[C@H]([C@H](C)Cl)[C@H]3OC(SC)[C@H](O)C(O)C3O)C2)cc1 (stereo partly drawn) [FSA-511045] | 32 (≈ 58.7 µM) | 0.25 (≈ 0.459 µM) | > 64 |  |  | 1 (≈ 1.83 µM) | ≤ 0.06 | ≤ 0.06 | 8 (≈ 14.7 µM) |  |  |  | MIC (K. pneumoniae ATCC 10031; [7]): 16 µg/mL (≈ 29.4 µM); MIC (S. aureus ATCC 29213; [13]): 0.5 µg/mL (≈ 0.917 µM); MIC (H. influenzae ATCC 49247; Haemophilus influenzae, ATCC49247, H. influenzae ATCC 49247, read-out: MIC): 16 µg/mL (≈ 29.4 µM) |
| COc1ccc([C@@H]2CCO[C@@H]3[C@H](CN[C@@H]3C(=O)N[C@H]([C@H](C)Cl)[C@H]3OC(SC)[C@H](O)[C@H](O)C3O)C2)cc1 (stereo partly drawn) [FSA-512080c] | 32 (≈ 58.7 µM) | 0.5 (≈ 0.917 µM) | > 128 | 0.25 (≈ 0.459 µM) | 32 (≈ 58.7 µM) | 2 (≈ 3.67 µM) | ≤ 0.06 | ≤ 0.06 | 8 (≈ 14.7 µM) |  |  |  | MIC ([3]; E. faecalis MMX 847 MacRes): 128 µg/mL (≈ 235 µM); MIC (S. aureus MMX 3035 cErmA): 128 µg/mL (≈ 235 µM); MIC [4]: 0.12 µg/mL (≈ 0.22 µM); MIC [5, 14]: 16 µg/mL (≈ 29.4 µM); MIC ([6]; S. pyogenes MMX 946 MacRes, read-out: MIC): 64 µg/mL (≈ 117 µM); MIC (S. aureus BAA 977 iErmA): 0.5 µg/mL (≈ 0.917 µM) |
| CSC1O[C@H]([C@H](NC(=O)[C@H]2NC[C@@H]3CC(c4ccc(C)cc4)=CCO[C@H]32)[C@H](C)Cl)C(O)[C@@H](O)[C@H]1O (stereo partly drawn) [FSA-511019] | 64 (≈ 121 µM) | 0.5 (≈ 0.949 µM) | > 64 |  | 64 (≈ 121 µM) | 4 (≈ 7.59 µM) | 0.25 (≈ 0.474 µM) | 0.125 (≈ 0.237 µM) | 32 (≈ 60.7 µM) |  |  |  | MIC (K. pneumoniae ATCC 10031; [7]): > 64 µg/mL; MIC (S. aureus ATCC 29213; [13]): 0.5 µg/mL (≈ 0.949 µM) |
| CSC1O[C@H]([C@H](NC(=O)[C@H]2NC[C@@H]3CC(NCc4ccccc4F)CCO[C@H]32)[C@H](C)Cl)C(O)C(O)[C@H]1O (stereo partly drawn) [FSA-510072] | > 64 | 64 (≈ 114 µM) |  | 64 (≈ 114 µM) | > 64 |  | 30 (≈ 53.4 µM) | 8 (≈ 14.2 µM) | > 64 | > 64 | > 64 | > 64 |  |
| CSC1O[C@H]([C@H](NC(=O)[C@H]2NC[C@@H]3CCCCO[C@@H]32)[C@H](C)Cl)C(O)[C@@H](O)[C@H]1O (stereo partly drawn) [FSA-504062] | > 64 | 1 (≈ 2.28 µM) |  | 2 (≈ 4.56 µM) | > 64 | 32 (≈ 72.9 µM) | 0.25 (≈ 0.57 µM) | 0.12 (≈ 0.273 µM) | > 64 | > 64 | > 64 |  |  |
| CSC1O[C@H]([C@H](NC(=O)[C@H]2NC[C@@H]3C[C@@H](c4ccc(C#N)cc4)CCO[C@H]32)[C@H](C)Cl)C(O)[C@@H](O)[C@H]1O (stereo partly drawn) [FSA-512081a] |  |  |  |  |  |  |  |  |  |  |  | 0.5 (≈ 0.926 µM) | MIC [1]: 16 µg/mL (≈ 29.6 µM); MIC ([3]; E. faecalis MMX 847 MacRes): 64 µg/mL (≈ 119 µM); MIC (S. aureus MMX 3035 cErmA): 128 µg/mL (≈ 237 µM); MIC (S. aureus ATCC 29213; S. aureus ATCC 29213): 0.25 µg/mL (≈ 0.463 µM); MIC (H. influenzae ATCC 49247; H. influenzae ATCC 49247): 16 µg/mL (≈ 29.6 µM); MIC [4]: < 0.06 µg/mL; MIC [5, 14]: 4 µg/mL (≈ 7.41 µM); MIC (S. pyogenes ATCC 19615): ≤0.06 µg/mL; MIC [6]: 16 µg/mL (≈ 29.6 µM); MIC (E. coli MP-9 ΔTolC): 4 µg/mL (≈ 7.41 µM); MIC (S. aureus BAA 977 iErmA): 1 µg/mL (≈ 1.85 µM) |
| CSC1O[C@H]([C@H](NC(=O)[C@H]2NC[C@@H]3CC(NCc4cccc(F)c4)CCO[C@H]32)[C@H](C)Cl)C(O)[C@@H](O)[C@H]1O (stereo partly drawn) [FSA-510073] | > 64 | 16 (≈ 28.5 µM) |  | 16 (≈ 28.5 µM) | > 64 |  | 8 (≈ 14.2 µM) | 2 (≈ 3.56 µM) | > 64 | > 64 | > 64 | > 64 |  |
| CSC1O[C@H]([C@H](NC(=O)[C@H]2NC[C@@H]3CC(c4ccc(C)cc4)CCO[C@H]32)[C@H](C)Cl)C(O)[C@@H](O)[C@H]1O (stereo partly drawn) [FSA-511044] | 16 (≈ 30.2 µM) | 0.5 (≈ 0.945 µM) | > 64 | 0.25 (≈ 0.473 µM) | 16 (≈ 30.2 µM) | 2 (≈ 3.78 µM) |  | ≤ 0.06 | 16 (≈ 30.2 µM) |  |  |  | MIC (K. pneumoniae ATCC 10031; [7]): 32 µg/mL (≈ 60.5 µM); MIC (S. pneumoniae ATCC 49619): 0.5 µg/mL (≈ 0.945 µM) |
| CSC1O[C@H]([C@H](NC(=O)[C@H]2NC[C@@H]3CC(c4ccc(C#N)cc4)=CCO[C@H]32)[C@H](C)Cl)C(O)[C@@H](O)[C@H]1O (stereo partly drawn) [FSA-511033] | 64 (≈ 119 µM) | 1 (≈ 1.86 µM) | > 64 | 0.5 (≈ 0.929 µM) | 64 (≈ 119 µM) | 2 (≈ 3.72 µM) | ≤ 0.06 | ≤ 0.06 | 32 (≈ 59.5 µM) | 64 (≈ 119 µM) |  |  |  |
| CSC1O[C@H]([C@H](NC(=O)[C@H]2NC[C@@H]3CC=CCO[C@@H]32)[C@H](C)Cl)C(O)[C@@H](O)[C@H]1O (stereo partly drawn) [FSA-504059] | > 64 | 2 (≈ 4.58 µM) |  | 2 (≈ 4.58 µM) | > 64 |  | 0.25 (≈ 0.572 µM) | 0.12 (≈ 0.275 µM) | > 64 | > 64 | > 64 | 32 (≈ 73.2 µM) |  |
| CSC1O[C@H]([C@H](NC(=O)[C@H]2NC[C@@H]3CC(NCc4ccc(F)cc4)CCO[C@H]32)[C@H](C)Cl)C(O)[C@@H](O)[C@H]1O (stereo partly drawn) [FSA-510074] | > 64 | 64 (≈ 114 µM) |  | 64 (≈ 114 µM) | > 64 |  | 32 (≈ 56.9 µM) | 8 (≈ 14.2 µM) | > 64 | > 64 | > 64 | > 64 |  |
| CSC1O[C@H]([C@H](NC(=O)[C@H]2NC[C@@H]3C[C@@H](c4ccc(C(F)(F)F)cc4)CCO[C@H]32)[C@H](C)Cl)C(O)[C@@H](O)[C@H]1O (stereo partly drawn) [FSA-509019] | 32 (≈ 54.9 µM) |  |  | ≤ 0.06 |  | 1 (≈ 1.72 µM) | ≤ 0.06 | ≤ 0.06 | 16 (≈ 27.4 µM) | 16 (≈ 27.4 µM) |  |  | MIC ([3]; E. faecalis MMX 847 Macrolide-Resistant (MacRes)): 64 µg/mL (≈ 110 µM); MIC (S. aureus MMX 3035 cErmA): 64 µg/mL (≈ 110 µM); MIC [4]: 0.125 µg/mL (≈ 0.214 µM); MIC [5]: 16 µg/mL (≈ 27.4 µM); MIC [6]: 32 µg/mL (≈ 54.9 µM); MIC (S. aureus BAA 977 iErmA): 0.25 µg/mL (≈ 0.429 µM) |
| CSC1O[C@H]([C@H](NC(=O)[C@H]2NC[C@@H]3C[C@@H](c4ccc(C#N)cc4)CCO[C@H]32)[C@H](C)Cl)C(O)[C@@H](O)[C@H]1O (stereo partly drawn) [FSA-511046] | 32 (≈ 59.3 µM) | 0.5 (≈ 0.926 µM) | > 64 |  | 16 (≈ 29.6 µM) | 1 (≈ 1.85 µM) | ≤ 0.06 | ≤ 0.06 | 8 (≈ 14.8 µM) | 16 (≈ 29.6 µM) |  |  | MIC (S. aureus ATCC 29213; S. aureus ATCC 29213): 1 µg/mL (≈ 1.85 µM) |
